Source: US20240376122A1, “SMALL MOLECULE COMPOUNDS” (APERTOR PHARMACEUTICALS, INC., priority 2021, published 2024)

How the values were obtained:
[1] = system: Saccharomyces cerevisiae BY4742; assay: Anti-yeast activity assay (minimum inhibitory concentration); type: cell-based; settings: YPD media, 96-well plates, 30° C. for 16 hours without shaking, lowest concentration with no obvious culture growth, triplicate, read-out: MIC against Saccharomyces cerevisiae BY4742
Method: A single colony of Saccharomyces cerevisiae BY4742 was inoculated into 2 mL YPD media in a 5 mL falcon tube to grow overnight at 30° C. The overnight culture was inoculated into 5 mL YPD media in a glass tube at OD600-0.1, and the new culture was grown at 30° C. until OD600 reached 0.5. The culture was then diluted to OD600-0.01 and aliquoted into 96-well plates at 100 μL per well. The compound was dissolved in ethanol at 75 μM. Three-fold serial dilutions were conducted for the Compound 10 times using ethanol, respectively. 4 μL of each concentration compound solution was added and mixed with 384 μL YPD media. 100 μL of the YPD media solutions were mixed with the Saccharomyces cerevisiae cultures in 96-well plates by pipette, respectively. The plates were incubated at 30° C. for 16 hours without shaking. The lowest Compound concentrations in wells that have no obvious culture growth were defined as the minimum inhibitory concentrations (MICs). The assays were conducted in triplicate.

[2] = observed in humans; cited from earlier work

| SMILES | MIC [1] [µM] | terminal half-life [2] [h] |
| --- | --- | --- |
| CO[C@@H]1/C(C)=C/C=C/C=C/[C@@H](C)C[C@@H](C)C(=O)[C@H](OC)[C@H](O)/C(C)=C/[C@@H](C)C(=O)C[C@@H]([C@H](C)C[C@@H]2CC[C@@H](O)[C@H](OC)C2)OC(=O)[C@@H]2CCCCN2C(=O)C(=O)[C@]2(O)O[C@@H](CC[C@H]2C)[C@H]1C (single isomer, unassigned) [Compound 15] | < 0.0556 |  |
| CO[C@H]1C[C@@H]2CC[C@@H](C)[C@@](O)(O2)C(=O)C(=O)N2CCCC[C@H]2C(=O)O[C@H]([C@H](C)C[C@@H]2CC[C@@H](O)[C@H](OC)C2)CC(=O)[C@H](C)/C=C(\C)[C@@H](O)[C@@H](OC)C(=O)[C@H](C)C[C@H](C)/C=C/C=C/C=C/1C [rapamycin] |  | 24 to 48 |
